Experimental data reported in US20230277550A1, “Methods for Treating Respiratory Diseases Characterized by Mucus Hypersecretion” (The Board of Trustees of the Leland Stanford Junior …, priority 2020, published 2023).

Experiments:
[1] = system: Mature (ALI+30d) primary cystic fibrosis human airway epithelial cells; assay: DAPT treatment of mature cystic fibrosis cultures; format: cell-based; conditions: mature CF cultures, one week (ALI+30 to +37d)
Description: Mature (ALI+30d) primary cystic fibrosis human airway epithelial cells were treated with DAPT for one week (ALI+30 to +37d), then labeled with anti-acetylated α-Tubulin (green) and ECAD (red) antibodies.

[2] = system: primary human epithelial cells; assay: Ciliary beat frequency and cilium length with DAPT; format: cell-based; conditions: cells differentiated in the presence of DAPT vs untreated
[3] = system: Primary human airway epithelial cells; assay: GSI treatment from the apical or basal surface; format: cell-based; conditions: ALI+0 to +21d, apical or basal application
Description: Primary human airway epithelial cells were treated with DAPT and LY45139 during differentiation only (ALI+0 to +21d) from either the apical or basal surface, then labeled at ALI+21d with anti-acetylated α-Tubulin (green) and ECAD (red) antibodies. […] Apical treatment eliminates the air-liquid interface, which results in the poor epithelial structure and multiciliated cell differentiation in the untreated cultures, which is partially rescued by GSI treatment.

[4] = system: primary human nasal epithelial cells (HNECs); assay: Semagacestat dose response on multiciliated cell (MCC) formation in HNEC ALI cultures; format: cell-based; conditions: 1 µM DAPT; p <0.01 by ANOVA with Dunnett's test
Description: Air-Liquid Interface (ALI) cultures were prepared as described in Vladar EK, Nayak JV, Milla CE, Axelrod JD. Airway epithelial homeostasis and planar cell polarity signaling depend on multiciliated cell differentiation. JCI Insight. 2016;1(13);e88027. Human nasal epithelial cells (HNECs) were generated from human sinonasal epithelial brushings or from tissue obtained from patients undergoing endoscopic sinus surgery at Stanford Hospital and cultured as described in Vladar et al.
Cultures were treated with varying doses of semagacestat. DAPT (Abcam) was used ([…]) as a positive control for GSI activity. Cultures were labeled at ALI+21d with anti-acetylated α-tubulin (green) and ECAD (red) antibodies to mark cilia and epithelial junctions.
The ratio was defined as MCC number/total luminal cells. Counting was done on one representative image from 5 culture replicates from a single donor.

[5] = system: HNEC cultures from a CF patient; assay: IL-13 induced chronic inflammation model in ALI HNEC cultures; format: cell-based, human; conditions: DAPT 1 um, semagacestat 125 nm, days 14-21
Description: Administration of IL-13 to ALI cultures induces goblet cell hyperplasia and is a useful model of chronic inflammation. ALI HNEC cultures were prepared as described in Vladar et al. ALI cultures were treated with and without administration of Il-13 on days 7-14. DAPT (1 um), semagacestat (125 nm) or vehicle control were administered on days 14-21. PFA-fixed cultures were stained for Muc5AC (red; mucin producing secretory cells), Acetylated tubulin (green; MCCs) and E-Cadherin (blue to reveal cell boundaries).
HNEC cultures from a CF patient were treated with IL-13 from ALI+7 to 14 to induce inflammation. […] IL-13 treatment increases the percentage of mucin positive secretory cells and decreases the percentage of MCCs.

[6] = system: healthy and CF primary human airway epithelial cultures; assay: SEM of cilia in healthy and CF cultures; format: cell-based; conditions: healthy and CF cultures under DAPT vs untreated healthy cultures
[7] = system: Primary human airway epithelial cells; assay: MCC formation by timing of GSI treatment (proliferation, differentiation, continuous); format: cell-based
Description: Primary human airway epithelial cells were treated with DAPT and LY45139: i) during proliferation only (ALI-5 to -1d), ii) during differentiation only (ALI+0 to +21d) or iii) continuously during the entire culture duration, followed by labeling at ALI+21d with anti-acetylated α-Tubulin (green) and ECAD (red) antibodies.

[8] = system: Mature (ALI+30d) primary human airway epithelial cells; assay: GSI treatment of mature (ALI+30d) cultures; format: cell-based; conditions: mature cultures treated one (ALI+30 to +37d) or two weeks (ALI+30 to +44d)
Description: Mature (ALI+30d) primary human airway epithelial cells were treated with DAPT and semagacestat for one (ALI+30 to +37d) or two weeks (ALI+30 to +44d), then labeled with anti-acetylated α-Tubulin (green) and ECAD (red) antibodies.

[9] = system: Primary human airway epithelial cells; assay: MCC formation with a variety of GSIs at high and low concentrations; format: cell-based; conditions: for epithelial structure: high concentrations; for epithelial structure / multiciliated cell formation: ALI+0 to +21d; for multiciliated cell formation: low concentration; for Notch signaling and differentiation towards MCCs: nanomolar range, human nasal epithelial cells
[10] = system: Primary nasal epithelial cells from two CF donors (F508del homozygotes); assay: Ciliary beat frequency (CBF) in CF donor cultures, MK-0752 and Elexacaftor; format: cell-based, human; conditions: MK-0752 125 nM or triple modulator with Elexacaftor 100 nM; p < 0.001
[11] = cited from earlier work
CFTR = CFTR current in Ussing chambers, GSI with or without ETI; format: cell-based, human
Description: Cells grown at an air liquid interface were mounted on a holding slider and inserted on an Ussing chamber for electrophysiological short circuit current (Isc) measurements. Solutions in the serosal and mucosal bath were prepared so that a chloride gradient was established between both sides. After stable baseline current recordings were obtained, agonists were added in the following order: amiloride (10 µM) to block sodium channel activity, forskolin (10 µM) to stimulate CFTR, Ivacaftor (10 µM) to potentiate CFTR activity, and CFTRinh-172 (20 µM) to block CFTR current. For each agonist signals were monitored until a plateau in current was noted before adding the next agonist. The delta-Isc in response to CFTRinh-172 was used as our main read out for CFTR-mediated chloride transport.
We directly measured CFTR activity in cultures from CF patients treated with GSI with or without well-established effective in vitro doses of Trikafta (Elexcaftor/Tezacaftor/Ivacaftor or “ETI”). Veit, G., et al., JCI (2020) 10.1172/jci.insight.139983. Measurements were performed in Ussing chambers. […] In some individual experiments, there appeared to be a synergistic effect in the combination treatment: GSI alone has no effect but the combination treatment produced a greater response than ETI alone. This effect was not consistently seen, but raised the possibility that synergy might be observed with lower ETI doses.
To examine this further, we tested MK04752 in combination with varying doses of ETI (FIG. 28).

C[C@H](NC(=O)Cc1cc(F)cc(F)c1)C(=O)NC(C(=O)OC(C)(C)C)c1ccccc1 (some centres unmarked) [DAPT]
formation of additional multiciliated cells [1]: induces the formation of additional multiciliated cells in mature cystic fibrosis cultures
ciliary beat frequency [2]: modest, but significant increase
cilium length [2]: no difference
ciliated cell formation [3]: induces ciliated cell formation via both apical and basal application
ratio MCC number/total luminal cells [4]: significant increases
percentage of MCCs ([5]; after IL-13 (ALI+7 to 14)): increasing the percentage of MCCs
percentage of mucin positive secretory cells ([5]; after IL-13 (ALI+7 to 14)): decreasing the percentage of mucin positive secretory cells
percentage of MCCs ([5]; controls without IL-13): increase the percentage off MCCs
structure of multiciliated cells by SEM [6]: indistinguishable from those in untreated healthy cultures
MCC cell numbers ([7]; treatment during differentiation (differentiation only ALI+0 to +21d, and continuous)): increased MCC cell numbers
effect on differentiation ([7]; treatment during proliferation only (ALI-5 to -1d)): had no effect on differentiation
formation of additional multiciliated cells [8]: induces the formation of additional multiciliated cells

O=C(O)CC[C@H]1CC[C@@](c2cc(F)ccc2F)(S(=O)(=O)c2ccc(Cl)cc2)CC1 [MK-0752]
epithelial structure [9]: disrupted epithelial structure
multiciliated cell formation [9]: induced multiciliated cell formation
Notch signaling and differentiation towards MCCs [9]: effective in blocking Notch signaling, driving differentiation towards MCCs
ciliary beat frequency (CBF) vs control [10]: significant effect in increasing the CBF
most common drug-related toxicities ([11]; 450 to 4,200 mg, three schedules): diarrhea, nausea, vomiting, and fatigue
tolerability ([11]; weekly dosing): generally well-tolerated
CFTR current with suboptimal doses of ETI (CFTR; MK04752 with varying (reduced Elexacaftor) doses of ETI): suboptimal doses of ETI appear to be potentiated by MK04752
CFTR current induced by ETI (CFTR; cultures from CF patients, GSI plus ETI): Neither LY45139 (FIG. 26) nor MK04752 (FIG. 27) impaired the CFTR current

CC(C)(C(=O)NCC(F)(F)C(F)(F)F)C(=O)N[C@@H]1C(=O)Nc2ccccc2-c2ccccc21 [RO-4929097]
epithelial structure [9]: disrupted epithelial structure
multiciliated cell formation [9]: induced multiciliated cell formation
Notch signaling and differentiation towards MCCs [9]: effective in blocking Notch signaling, driving differentiation towards MCCs

CCC[C@H](N[C@H]1CCc2cc(F)cc(F)c2C1)C(=O)Nc1cn(C(C)(C)CNCC(C)(C)C)cn1 [nirogacestat, (S)-2-((S)-5,7-difluoro-1,2,3,4-tetrahydronaphthalen-3-ylamino)-N-(1-(2-m-ethyl-1-(neopentylamino)propan-2-yl)-1H-imidazol-4-yl)pentanamide]
epithelial structure [9]: disrupted epithelial structure
multiciliated cell formation [9]: induced multiciliated cell formation
Notch signaling and differentiation towards MCCs [9]: effective in blocking Notch signaling, driving differentiation towards MCCs
